As a reminder, the IC50 is the point on the concentration scale where inhibition reaches its midpoint.

Activity calls are given as the source filed them. The calls are words filed in the database; no cut-off is given here.

This is an account of results in ChEMBL document CHEMBL4425179, “Colorectal anticancer activities of polymethoxylated 3-naphthyl-5-phenylpyrazoline-carbothioamides” (Bioorg Med Chem Lett, 2016).

In experiment [1] the test system is HCT-116. Nature of the experiment: Growth inhibition of human HCT116 cells after 7 days by clonogenic survival assay. It counts as functional. As to conditions: HCT-116, 168 h.
Experiment [2] concerns HCT-116. Nature of the experiment: Cytotoxicity against human HCT116 cells assessed as decrease in cell viability after 24 hrs by WST-8 based CCK-8 assay. It counts as functional.
Experiment [3] concerns HCT-116. As to the kind of experiment: Cell cycle arrest in human HCT116 cells assessed as accumulation at G1 phase at 10 uM after 24 to 48 hrs by propidium iodide staining based flow cytometry (reference value: 51 to 58.9%). It counts as functional. (In general: In flow cytometry, cells or beads pass a laser one at a time.)
The subject of experiment [4] is HCT-116. Nature of the experiment: Cell cycle arrest in human HCT116 cells assessed as accumulation at S phase at 10 uM after 24 to 48 hrs by propidium iodide staining based flow cytometry (reference value: 13 to 18%). It counts as functional.
The test system of experiment [5] is HCT-116. As to the kind of experiment: Cell cycle arrest in human HCT116 cells assessed as accumulation at G2/M phase at 10 uM after 24 to 48 hrs by propidium iodide staining based flow cytometry (reference value: 22.9 to 24%). It counts as functional.
In experiment [6] the test system is HCT-116. Nature of the experiment: Cell cycle arrest in human HCT116 cells assessed as accumulation at G1 phase at 20 uM after 24 to 48 hrs by propidium iodide staining based flow cytometry (reference value: 51 to 58.9%). It counts as functional.
The subject of experiment [7] is HCT-116. Nature of the experiment: Cell cycle arrest in human HCT116 cells assessed as accumulation at S phase at 20 uM after 24 to 48 hrs by propidium iodide staining based flow cytometry (reference value: 13 to 18%). It counts as functional.
The test system of experiment [8] is HCT-116. Nature of the experiment: Cell cycle arrest in human HCT116 cells assessed as accumulation at G2/M phase at 20 uM after 24 to 48 hrs by propidium iodide staining based flow cytometry (reference value: 22.9 to 24%). It counts as functional.
Experiment [9] concerns HCT-116. As to the kind of experiment: Cell cycle arrest in human HCT116 cells assessed as accumulation at G1 phase at 40 uM after 24 to 48 hrs by propidium iodide staining based flow cytometry (reference value: 51 to 58.9%). It counts as functional.
Experiment [10] concerns HCT-116. As to the kind of experiment: Cell cycle arrest in human HCT116 cells assessed as accumulation at S phase at 40 uM after 24 to 48 hrs by propidium iodide staining based flow cytometry (reference value: 13 to 18%). It counts as functional.
Experiment [11] deals with HCT-116. As to the kind of experiment: Cell cycle arrest in human HCT116 cells assessed as accumulation at G2/M phase at 40 uM after 24 to 48 hrs by propidium iodide staining based flow cytometry (reference value: 22.9 to 24%). It counts as functional.
The subject of experiment [12] is HCT-116. Nature of the experiment: Cell cycle arrest in human HCT116 cells assessed as accumulation at G1 phase after 24 to 48 hrs by propidium iodide staining based flow cytometry. It counts as functional.
Experiment [13] concerns HCT-116. Nature of the experiment: Downregulation of cyclin D1 expression in human HCT116 cells at 20 uM by Western blot analysis. It counts as functional, cell-based. As to conditions: TDE = time-dependent effect.
Experiment [14] deals with HCT-116. As to the kind of experiment: Downregulation of cyclin B1 expression in human HCT116 cells at 20 uM by Western blot analysis. The note with it: TDE = time-dependent effect. It counts as functional, cell-based. (In western blotting, separated proteins are transferred to a membrane and probed.)
For experiment [15], the system named is HCT-116. Nature of the experiment: Cell cycle arrest in human HCT116 cells assessed as accumulation at sub-G1 phase at 20 uM after 48 hrs by propidium iodide staining based flow cytometry (reference value: 4%). It counts as functional.
Experiment [16] concerns HCT-116. As to the kind of experiment: Induction of apoptosis in human HCT116 cells assessed as caspase 9 cleavage at 20 uM after 36 hrs by Western blot analysis. It counts as functional, cell-based.
Experiment [17] relates to HCT-116. As to the kind of experiment: Induction of apoptosis in human HCT116 cells assessed as caspase 7 cleavage at 20 uM after 36 hrs by Western blot analysis. It counts as functional, cell-based.
Experiment [18] deals with HCT-116. As to the kind of experiment: Induction of apoptosis in human HCT116 cells assessed as caspase 3 cleavage at 20 uM after 36 hrs by Western blot analysis. It counts as functional, cell-based.
The test system of experiment [19] is HCT-116. As to the kind of experiment: Induction of apoptosis in human HCT116 cells assessed as PARP cleavage at 20 uM after 36 hrs by Western blot analysis. It counts as functional, cell-based.
Experiment [20] deals with T1, Aurora kinase A (Homo sapiens, UniProt O14965).
T1 sequence (O14965 whole entry): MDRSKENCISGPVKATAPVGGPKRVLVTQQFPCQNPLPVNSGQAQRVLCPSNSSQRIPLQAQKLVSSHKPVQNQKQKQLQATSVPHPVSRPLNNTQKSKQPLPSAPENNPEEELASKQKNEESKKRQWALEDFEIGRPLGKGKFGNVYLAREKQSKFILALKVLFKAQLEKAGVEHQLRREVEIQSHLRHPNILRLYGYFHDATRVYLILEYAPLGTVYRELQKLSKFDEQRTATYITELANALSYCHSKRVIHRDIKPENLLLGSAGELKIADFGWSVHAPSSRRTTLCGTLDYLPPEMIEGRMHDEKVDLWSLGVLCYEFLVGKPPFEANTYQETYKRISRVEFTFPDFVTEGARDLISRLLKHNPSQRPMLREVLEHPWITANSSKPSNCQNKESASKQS
Nature of the experiment: Inhibition of human recombinant N-terminal His6-tagged full-length aurora A expressed in Sf21 insect cells using ER-alpha as substrate after 25 mins by immunoblot analysis.

Experiment [21] concerns the target T2, Aurora kinase B (Homo sapiens, UniProt Q96GD4). As to the kind of experiment: Inhibition of human recombinant His-tagged aurora B expressed in baculovirus infected Sf21 insect cells by Western blot analysis.
For experiment [22], the target named is T2, Aurora kinase B. Nature of the experiment: Inhibition of aurora B phosphorylation at Thr-232 in human HCT116 cells at 20 uM by Western blot analysis. It counts as cell-based. The note with it: TDE = time-dependent effect.
The target in experiment [23] is T3, Aurora kinase A (Homo sapiens) (UniProt O14965).
T3 sequence (whole entry): T1 sequence (O14965 whole entry)
Nature of the experiment: Inhibition of aurora A phosphorylation at Thr-288 in human HCT116 cells at 20 uM by Western blot analysis. It counts as cell-based. As to conditions: TDE = time-dependent effect.

Experiment [24] deals with T4, Aurora kinase C (Homo sapiens) (UniProt Q9UQB9).
T4 sequence (whole entry): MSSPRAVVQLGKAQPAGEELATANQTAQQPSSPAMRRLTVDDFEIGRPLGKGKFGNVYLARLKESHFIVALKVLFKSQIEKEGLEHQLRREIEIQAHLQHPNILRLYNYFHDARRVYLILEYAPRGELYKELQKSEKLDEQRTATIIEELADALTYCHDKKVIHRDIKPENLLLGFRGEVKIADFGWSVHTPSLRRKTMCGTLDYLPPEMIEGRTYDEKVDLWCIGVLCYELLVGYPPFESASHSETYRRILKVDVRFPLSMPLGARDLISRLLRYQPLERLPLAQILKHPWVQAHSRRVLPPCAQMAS
As to the kind of experiment: Inhibition of aurora C phosphorylation at Thr-198 in human HCT116 cells at 20 uM by Western blot analysis. It counts as cell-based. The note with it: TDE = time-dependent effect.

In experiment [25] the target is T3, Aurora kinase A (Homo sapiens). As to the kind of experiment: Inhibition of aurora A in human HCT116 cells assessed as decrease in histone H3 phosphorylation at Ser-10 at 20 uM by Western blot analysis. It counts as cell-based. As to conditions: TDE = time-dependent effect.
Experiment [26] deals with T2, Aurora kinase B. As to the kind of experiment: Inhibition of aurora B in human HCT116 cells assessed as decrease in histone H3 phosphorylation at Ser-10 at 20 uM by Western blot analysis. It counts as cell-based. As to conditions: TDE = time-dependent effect.
The species named for experiment [27] is Homo sapiens. Nature of the experiment: Selectivity ratio of IC50 for human recombinant N-terminal His6-tagged full-length aurora A to IC50 for human recombinant His-tagged aurora B.

T2 sequence (Q96GD4 whole entry): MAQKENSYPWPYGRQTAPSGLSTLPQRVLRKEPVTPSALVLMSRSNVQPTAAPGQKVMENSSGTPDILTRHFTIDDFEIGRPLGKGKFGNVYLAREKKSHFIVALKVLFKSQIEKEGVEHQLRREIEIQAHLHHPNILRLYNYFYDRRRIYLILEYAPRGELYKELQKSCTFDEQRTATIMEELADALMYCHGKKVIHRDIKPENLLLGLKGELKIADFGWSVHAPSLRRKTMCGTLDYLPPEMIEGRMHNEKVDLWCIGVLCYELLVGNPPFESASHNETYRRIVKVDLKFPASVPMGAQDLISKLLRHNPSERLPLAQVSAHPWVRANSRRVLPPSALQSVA

For the molecule `COc1ccccc1C1CC(c2ccc3ccccc3c2O)=NN1C(=S)Nc1cc(OC)c(OC)c(OC)c1` (stereo not drawn), the GI50 in experiment [1] (read-out: GI50) is 0.223 µM; in experiment [1] (read-out: pGI50 (converted)), 0.224 µM.
For `COc1ccc(C2CC(c3ccc4ccccc4c3O)=NN2C(=S)Nc2ccccc2OC)cc1` (stereo not drawn) the same measures were 3.54 µM and 3.55 µM.
The like results for `COc1ccccc1C1CC(c2c(O)ccc3ccccc23)=NN1C(=S)Nc1cc(OC)c(OC)c(OC)c1` (stereo not drawn) were, in that order, 0.994 µM and 1 µM.
The like results for `COc1ccc(C2CC(c3ccc4ccccc4c3O)=NN2C(=S)Nc2cc(OC)c(OC)c(OC)c2)cc1` (stereo not drawn) were, in that order, 0.208 µM and 0.209 µM.
As to `COc1ccccc1NC(=S)N1N=C(c2ccc3ccccc3c2O)CC1c1ccccc1OC` (stereo not drawn), the GI50 in [1] (read-out: GI50) is 4.92 µM; in experiment [1] (read-out: pGI50 (converted)), 4.9 µM.
For `COc1ccc(NC(=S)N2N=C(c3ccc4ccccc4c3O)CC2c2cccc(OC)c2)cc1` (stereo not drawn) the same measures were 0.318 µM and 0.316 µM.
For `COc1ccccc1C1CC(c2c(O)ccc3ccccc23)=NN1C(=S)Nc1ccccc1` (stereo not drawn) the same measures were 2.5 µM and 2.51 µM.
As to `COc1ccc(C2CC(c3ccc4ccccc4c3O)=NN2C(=S)Nc2cccc(OC)c2)cc1` (stereo not drawn), the GI50 in experiment [1] (read-out: GI50) was 0.196 µM; in [1] (read-out: pGI50 (converted)), 0.195 µM. Besides, the Activity result in [2] was “Dose-dependent effect”; in experiment [3], 45.6%; in [4], 23.7%; in experiment [5], 26.8%; in experiment [6] it was 18 - 43.2%; in experiment [7], 27.4 - 28%. For the same molecule, the Activity in experiment [8] is 25.7 - 27%; in [9], 36.8%; in experiment [10], 29.4%; in experiment [11], 30.8%; in experiment [12] it was “Dose-dependent effect”; in experiment [13] it was “Tde”. Further, the values for the Activity result in experiment [14] and in experiment [15] were “Tde” and 17%, respectively. Moreover, the result in experiment [16], in [17], in experiment [18] and in experiment [19] was Active. Besides, the values for the IC50 in [20] and in experiment [21] were 105 µM and 8.53 µM, respectively. In addition, the inhibition entry in [22], in experiment [23], in experiment [24], in experiment [25] and in experiment [26] was “Tde” throughout. Besides, in experiment [27], the Ratio IC50 is 12.3.
Take `COc1cccc(C2CC(c3ccc4ccccc4c3O)=NN2C(=S)Nc2cc(OC)c(OC)c(OC)c2)c1` (stereo not drawn): the GI50 in experiment [1] (read-out: GI50) is 0.201 µM; in experiment [1] (read-out: pGI50 (converted)) it was 0.2 µM.
For `COc1ccc(NC(=S)N2N=C(c3ccc4ccccc4c3O)CC2c2ccc(OC)cc2)cc1` (stereo not drawn) the same measures were 0.234 µM and 0.234 µM.
For `COc1cccc(C2CC(c3ccc4ccccc4c3O)=NN2C(=S)Nc2ccc(OC)cc2OC)c1` (stereo not drawn) the same measures were 2.43 µM and 2.45 µM.
